In patent US20220184222A1, “BICYCLE TOXIN CONJUGATES AND USES THEREOF” (BicycleTx Limited, priority 2019, published 2022):
Where “and” joins values, the source holds several entries; their conditions need not be identical. Identical values can stand only once. Entries after “also recorded” stand apart in the source; their conditions may differ. Starred links: 1 amine or outer side, 2 acyl side, 3 side chain; linkers in the order of their positions; H or OH if unused. Non-standard residues stand in square brackets, D forms with d. Residues, ends and D or L forms follow the SMILES beside them. *: point of attachment. Dolaproine = CO[C@@H]([C@@H]1CCCN1)[C@@H](C)C(=O)O; Dil = CC[C@H](C)[C@H](NC)[C@@H](CC(=O)O)OC; PABC = O=C(OCc1ccc(N[*:1])cc1)[*:2]; X1 = O=C(CCCC(=O)*)ON1C(=O)CCC1=O; X2 = C[C@@H](N*)[C@@H](O)c1ccccc1; Cit = NC(=O)NCCC[C@H](N)C(=O)O; NMeV = CN[C@H](C(=O)O)C(C)C

System: PC-3 xenograft
Assay: In vivo efficacy in PC-3 xenograft, female BALB/c nude mice (Example 2)
Parameters: species or system Mus Musculus
Protocol: The objective of the research was to evaluate the in vivo anti-tumor efficacy of BT5528 and BCY10188 in treatment of PC-3 xenograft model in BALB/c nude mice.
Each mouse was inoculated subcutaneously at the right flank with PC-3 tumor cells ([…]) in 0.2 ml of PBS for tumor development. 60 animals were randomized when the average tumor volume reached 464 mm^3. The test article administration and the animal numbers in each group were shown in the experimental design table.
1) 0.1 mg/mL solution (with 50 mM Acetate 10% sucrose pH 5 buffer) was prepared before the operation. 2) The syringe loaded with dosing solution was fixed on the Syringe Pump Machine, then a needle was bound to the pipe jointed with the syringe. 3) The injection volume (10 ml/kg, calculated based on the bodyweight), injection time (1 h for this study), and infusion rate was set to the Pump, then a quick running was conducted to check the working condition of the whole system. 4) The mouse was fixed comfortably, then the operator injected the syringe needle into the caudal vein, and fixed the mouse tail as well as the needle firmly and stably(no need anesthesia for less than 1 h) 5) Then the infusion was started, and the operator kept monitoring the dosing condition till the end.
1) 0.130 mg/mL solution (with 50 mM Acetate 10% sucrose pH 5 buffer) was prepared before the operation. 2) The pump was fully filled with the dosing solution (˜200 μl, see the hand book of the Alzet pump 2001D). 3) The animal in group 12 was anesthetized with 80 mg/kg pentobarbital sodium, and the pump was embedded under the skin of left side of mouse. 4) 26 h later, the animals were anesthetized with pentobarbital sodium, and the pump was taken out. (The infusion rate is not stable at the first 1-3 h, thus the pump was taken out at 26 h instead of 24 h to ensure that all solution was pumped-out).
The major endpoint was to see if the tumor growth could be delayed or mice could be cured. Tumor volume was measured 3 times per week in two dimensions using a caliper, and the volume was expressed in mm^3 using the formula: V=0.5 a×b^2 where a and b are the long and short diameters of the tumor, respectively. The tumor size was then used for calculations of T/C value. The T/C value (in percent) is an indication of antitumor effectiveness; T and C are the mean volumes of the treated and control groups, respectively, on a given day.
TGI was calculated for each group using the formula: TGI (%)=[1−(Ti−T0)/(Vi−V0)]×100; Ti is the average tumor volume of a treatment group on a given day, T0 is the average tumor volume of the treatment group on the day of treatment start, Vi is the average tumor volume of the vehicle control group on the same day with Ti, and V0 is the average tumor volume of the vehicle group on the day of treatment start.
Tumor growth inhibition rate of BT5528 and BCY10188 in the PC-3 xenograft model was calculated based on tumor volume measurements on day 17 after the start of treatment.

[1] = 1 mpk iv 1 h infusion qw*2 weeks, day 17
[2] = 1 mpk sc 24 h minipump qw*2 weeks, day 17

Question: For `CC[C@H](C)[C@@H]([C@@H](CC(=O)N1CCC[C@H]1[C@H](OC)[C@@H](C)C(=O)N[C@H](C)[C@@H](O)c1ccccc1)OC)N(C)C(=O)[C@@H](NC(=O)[C@H](C(C)C)N(C)C(=O)OCc1ccc(NC(=O)[C@H](CCCNC(N)=O)NC(=O)[C@@H](NC(=O)CCCC(=O)ON2C(=O)CCC2=O)C(C)C)cc1)C(C)C` [BT5528] (X1-V[Cit][PABC][NMeV]V[Dil][Dolaproine]-X2), which “tumor relapse after ceasing the treatment” value (1 mg/kg qw*2 weeks via intravenous bolus, intravenous infusion or subcutaneous ALZET pump) is on record?
Answer: The value was “obvious relapse 2 weeks later after ceasing the treatment”.

Question: What about the “efficacy across dosing paradigms” value (1 mg/kg, iv bolus (QW×2 and QW×4), 1 h iv infusion (QW×2), 24 h subcutaneous osmotic pump (QW×2)) of the same compound?
Answer: The value was “equivalent efficacy with a wide range of dosing paradigms; also recorded: comparable anti-tumor activity”.

Question: What about the Tumor volume (0.11 mpk iv qw*4 weeks, day 0) of the same compound?
Answer: Its Tumor volume is 463 mm^3.

Question: And the Tumor volume (0.11 mpk iv qw*4 weeks, day 2)?
Answer: Its Tumor volume is 634 mm^3.

Question: And the Tumor volume (0.11 mpk iv qw*4 weeks, day 4)?
Answer: Its Tumor volume is 725 mm^3.

Question: And the Tumor volume (0.11 mpk iv qw*4 weeks, day 6)?
Answer: The Tumor volume was 861 mm^3.

Question: What about the Tumor volume (0.11 mpk iv qw*4 weeks, day 8) of the same compound?
Answer: The Tumor volume was 1172 mm^3.

Question: And the Tumor volume (0.11 mpk iv qw*4 weeks, day 10)?
Answer: Its Tumor volume is 1247 mm^3.

Question: And the Tumor volume (0.11 mpk iv qw*4 weeks, day 13)?
Answer: Its Tumor volume is 1333 mm^3.

Question: What about the Tumor volume (0.11 mpk iv qw*4 weeks, day 15) of the same compound?
Answer: The Tumor volume was 1568 mm^3.

Question: What about the T/C (0.11 mpk iv qw*4 weeks, day 17) of the same compound?
Answer: Its T/C is 88.1%.

Question: What about the TGI (0.11 mpk iv qw*4 weeks, day 17) of the same compound?
Answer: The TGI was 15.3%.

Question: And the Tumor volume (0.11 mpk iv qw*4 weeks, day 17)?
Answer: The Tumor volume was 1780 mm^3 and 1780 ± 116 mm^3.

Question: And the Tumor volume (0.33 mpk iv qw*4 weeks, day 0)?
Answer: The Tumor volume was 463 mm^3.

Question: What about the Tumor volume (0.33 mpk iv qw*4 weeks, day 2) of the same compound?
Answer: The Tumor volume was 597 mm^3.

Question: And the Tumor volume (0.33 mpk iv qw*4 weeks, day 4)?
Answer: Its Tumor volume is 530 mm^3.

Question: What about the Tumor volume (0.33 mpk iv qw*4 weeks, day 6) of the same compound?
Answer: The Tumor volume was 525 mm^3.

Question: And the Tumor volume (0.33 mpk iv qw*4 weeks, day 8)?
Answer: Its Tumor volume is 584 mm^3.

Question: What about the Tumor volume (0.33 mpk iv qw*4 weeks, day 10) of the same compound?
Answer: The Tumor volume was 536 mm^3.

Question: What about the Tumor volume (0.33 mpk iv qw*4 weeks, day 13) of the same compound?
Answer: Its Tumor volume is 493 mm^3.

Question: And the Tumor volume (0.33 mpk iv qw*4 weeks, day 15)?
Answer: Its Tumor volume is 544 mm^3.

Question: What about the T/C (0.33 mpk iv qw*4 weeks, day 17) of the same compound?
Answer: Its T/C is 23.9%.

Question: And the TGI (0.33 mpk iv qw*4 weeks, day 17)?
Answer: The TGI was 98.8%.

Question: What about the Tumor volume (0.33 mpk iv qw*4 weeks, day 17) of the same compound?
Answer: Its Tumor volume is 482 mm^3 and 482 ± 22 mm^3.

Question: What about the Tumor volume (1 mpk iv 1 h infusion qw*2 weeks, day 0) of the same compound?
Answer: The Tumor volume was 463 mm^3.

Question: What about the Tumor volume (1 mpk iv 1 h infusion qw*2 weeks, day 2) of the same compound?
Answer: The Tumor volume was 538 mm^3.

Question: And the Tumor volume (1 mpk iv 1 h infusion qw*2 weeks, day 4)?
Answer: The Tumor volume was 539 mm^3.

Question: What about the Tumor volume (1 mpk iv 1 h infusion qw*2 weeks, day 6) of the same compound?
Answer: The Tumor volume was 467 mm^3.

Question: And the Tumor volume (1 mpk iv 1 h infusion qw*2 weeks, day 8)?
Answer: Its Tumor volume is 399 mm^3.

Question: What about the Tumor volume (1 mpk iv 1 h infusion qw*2 weeks, day 10) of the same compound?
Answer: Its Tumor volume is 330 mm^3.

Question: What about the Tumor volume (1 mpk iv 1 h infusion qw*2 weeks, day 13) of the same compound?
Answer: Its Tumor volume is 260 mm^3.

Question: What about the Tumor volume (1 mpk iv 1 h infusion qw*2 weeks, day 15) of the same compound?
Answer: Its Tumor volume is 213 mm^3.

Question: And the T/C [1]?
Answer: Its T/C is 10.3%.

Question: What about the TGI [1] of the same compound?
Answer: The TGI was 116.4%.

Question: What about the Tumor volume [1] of the same compound?
Answer: The Tumor volume was 209 mm^3 and 209 ± 27 mm^3.

Question: What about the Tumor volume (1 mpk iv qw*2 weeks, day 0) of the same compound?
Answer: Its Tumor volume is 464 mm^3.

Question: What about the Tumor volume (1 mpk iv qw*2 weeks, day 2) of the same compound?
Answer: Its Tumor volume is 572 mm^3.

Question: And the Tumor volume (1 mpk iv qw*2 weeks, day 4)?
Answer: The Tumor volume was 529 mm^3.

Question: What about the Tumor volume (1 mpk iv qw*2 weeks, day 6) of the same compound?
Answer: Its Tumor volume is 496 mm^3.

Question: And the Tumor volume (1 mpk iv qw*2 weeks, day 8)?
Answer: Its Tumor volume is 427 mm^3.

Question: What about the Tumor volume (1 mpk iv qw*2 weeks, day 10) of the same compound?
Answer: Its Tumor volume is 361 mm^3.

Question: And the Tumor volume (1 mpk iv qw*2 weeks, day 13)?
Answer: The Tumor volume was 269 mm^3.

Question: And the Tumor volume (1 mpk iv qw*2 weeks, day 15)?
Answer: The Tumor volume was 239 mm^3.

Question: What about the T/C (1 mpk iv qw*2 weeks, day 17) of the same compound?
Answer: Its T/C is 10.6%.

Question: And the TGI (1 mpk iv qw*2 weeks, day 17)?
Answer: The TGI was 116.0%.

Question: What about the Tumor volume (1 mpk iv qw*2 weeks, day 17) of the same compound?
Answer: Its Tumor volume is 214 mm^3 and 214 ± 33 mm^3.

Question: And the Tumor volume (1 mpk iv qw*4 weeks, day 0)?
Answer: The Tumor volume was 463 mm^3.

Question: And the Tumor volume (1 mpk iv qw*4 weeks, day 2)?
Answer: Its Tumor volume is 610 mm^3.

Question: What about the Tumor volume (1 mpk iv qw*4 weeks, day 4) of the same compound?
Answer: Its Tumor volume is 579 mm^3.

Question: And the Tumor volume (1 mpk iv qw*4 weeks, day 6)?
Answer: Its Tumor volume is 538 mm^3.

Question: What about the Tumor volume (1 mpk iv qw*4 weeks, day 8) of the same compound?
Answer: The Tumor volume was 476 mm^3.

Question: What about the Tumor volume (1 mpk iv qw*4 weeks, day 10) of the same compound?
Answer: Its Tumor volume is 408 mm^3.

Question: What about the Tumor volume (1 mpk iv qw*4 weeks, day 13) of the same compound?
Answer: Its Tumor volume is 341 mm^3.

Question: What about the Tumor volume (1 mpk iv qw*4 weeks, day 15) of the same compound?
Answer: The Tumor volume was 299 mm^3.

Question: And the T/C (1 mpk iv qw*4 weeks, day 17)?
Answer: The T/C was 14.5%.

Question: And the TGI (1 mpk iv qw*4 weeks, day 17)?
Answer: Its TGI is 111%.

Question: What about the Tumor volume (1 mpk iv qw*4 weeks, day 17) of the same compound?
Answer: Its Tumor volume is 282 mm^3 and 293 mm^3 and 293 ± 66 mm^3.

Question: What about the Tumor volume (1 mpk sc 24 h minipump qw*2 weeks, day 0) of the same compound?
Answer: The Tumor volume was 464 mm^3.

Question: What about the Tumor volume (1 mpk sc 24 h minipump qw*2 weeks, day 2) of the same compound?
Answer: Its Tumor volume is 517 mm^3.

Question: And the Tumor volume (1 mpk sc 24 h minipump qw*2 weeks, day 4)?
Answer: The Tumor volume was 64 mm^3.

Question: What about the Tumor volume (1 mpk sc 24 h minipump qw*2 weeks, day 6) of the same compound?
Answer: Its Tumor volume is 480 mm^3.

Question: What about the Tumor volume (1 mpk sc 24 h minipump qw*2 weeks, day 8) of the same compound?
Answer: Its Tumor volume is 443 mm^3.

Question: What about the Tumor volume (1 mpk sc 24 h minipump qw*2 weeks, day 10) of the same compound?
Answer: The Tumor volume was 393 mm^3.

Question: And the Tumor volume (1 mpk sc 24 h minipump qw*2 weeks, day 13)?
Answer: Its Tumor volume is 298 mm^3.

Question: And the Tumor volume (1 mpk sc 24 h minipump qw*2 weeks, day 15)?
Answer: The Tumor volume was 249 mm^3.

Question: And the T/C [2]?
Answer: The T/C was 11.1%.

Question: What about the TGI [2] of the same compound?
Answer: Its TGI is 115.5%.

Question: And the Tumor volume [2]?
Answer: Its Tumor volume is 223 mm^3 and 223 ± 46 mm^3.

Question: What about the Tumor volume (3 mpk iv qw*4 weeks, day 0) of the same compound?
Answer: Its Tumor volume is 464 mm^3.

Question: And the Tumor volume (3 mpk iv qw*4 weeks, day 2)?
Answer: The Tumor volume was 566 mm^3.

Question: And the Tumor volume (3 mpk iv qw*4 weeks, day 4)?
Answer: The Tumor volume was 526 mm^3.

Question: What about the Tumor volume (3 mpk iv qw*4 weeks, day 6) of the same compound?
Answer: The Tumor volume was 462 mm^3.

Question: What about the Tumor volume (3 mpk iv qw*4 weeks, day 8) of the same compound?
Answer: The Tumor volume was 377 mm^3.

Question: And the Tumor volume (3 mpk iv qw*4 weeks, day 10)?
Answer: Its Tumor volume is 320 mm^3.

Question: And the Tumor volume (3 mpk iv qw*4 weeks, day 13)?
Answer: Its Tumor volume is 249 mm^3.

Question: And the Tumor volume (3 mpk iv qw*4 weeks, day 15)?
Answer: Its Tumor volume is 243 mm^3.

Question: And the T/C (3 mpk iv qw*4 weeks, day 17)?
Answer: The T/C was 10.2%.

Question: What about the TGI (3 mpk iv qw*4 weeks, day 17) of the same compound?
Answer: Its TGI is 116.7%.

Question: And the Tumor volume (3 mpk iv qw*4 weeks, day 17)?
Answer: The Tumor volume was 205 mm^3 and 205 ± 14 mm^3.
